Measurements from ChEMBL document CHEMBL3045316, “Synthesis and analgesic activity of new heterocyclic compounds derived from monoterpenoids” (Med Chem Res, 2013).

Columns and labels:
Mus musculus [1] = test: Analgesic activity in albino Mus musculus (mouse) assessed as proportion of animals without pain behaviour symptoms at 10 mg/kg, po administered 1 hr before acetic acid injection measured for 5 to 8 min; format: functional
Mus musculus [2] = test: Analgesic activity in albino Mus musculus (mouse) assessed as protection against thermal stimulus-induced paw licking and jumping behaviour at 10 mg/kg, po measured after 1 hr by hot plate assay; format: functional
Mus musculus [3] = test: Analgesic activity in albino Mus musculus (mouse) assessed as inhibition of acetic acid-induced abdominal writhings at 10 mg/kg, po administered 1 hr before acetic acid injection measured for 5 to 8 min; format: functional; details: Abdomen
Mus musculus [4] = test: Selectivity index, ratio of LD50 for albino Mus musculus (mouse) to ED50 for albino Mus musculus (mouse) by hot-plate test
Mus musculus [5] = test: Selectivity index, ratio of LD50 for albino Mus musculus (mouse) to ED50 for albino Mus musculus (mouse) by acetic acid-induced writhing test
[6] = Acute toxicity in albino Mus musculus (mouse) assessed as mortality administered intragastrically by kreber method; format: organism-based; details: in vivo, po
Mus musculus [7] = test: Analgesic activity in po dosed albino Mus musculus (mouse) assessed as protection against thermal stimulus-induced paw licking and jumping behaviour measured after 1 hr by hot plate assay; format: functional
Mus musculus [8] = test: Analgesic activity in po dosed albino Mus musculus (mouse) assessed as inhibition of acetic acid-induced abdominal writhings administered 1 hr before acetic acid injection measured for 5 to 8 min; format: functional; details: Abdomen

With `COc1cc([C@H]2O[C@@]3(C)C[C@H](c4cc(OC)c(OC)c(OC)c4)O[C@H]4C(=O)[C@H](C)[C@H]2C[C@H]43)cc(OC)c1OC` the Activity (Mus musculus [1]) was 25%, the Activity (Mus musculus [2]) was 19% and the inhibition in vivo at 10 mg/kg (Mus musculus [3]) was 50%.

`COc1ccc([C@H]2O[C@@]3(C)C[C@H](c4ccc(OC)c(OC)c4OC)O[C@H]4C(=O)[C@H](C)[C@H]2C[C@H]43)c(OC)c1OC` showed an Activity (Mus musculus [2]) of 9% and an inhibition in vivo at 10 mg/kg (Mus musculus [3]) of 23%.

Compound `COc1cc([C@@H]2CC(C)(C)[C@@H]3CC=C(C)[C@@H](O)[C@@H]3O2)cc(OC)c1OC` has an Activity (Mus musculus [2]) of 16% and an inhibition in vivo at 10 mg/kg (Mus musculus [3]) of 13%.

For `COc1cc([C@@H]2C[C@@]3(C)O[C@H]4C(C)=CC[C@@H]3[C@H]4O2)cc(OC)c1OC`, the Activity (Mus musculus [1]) was 25%, the “Ratio LD50/ED50” value (Mus musculus [4]) was 60 and the Activity (Mus musculus [2]) was 72%. The “Ratio LD50/ED50” value (Mus musculus [5]) was 60, the LD50 [6] was 500 mg/kg and the ED50 (Mus musculus [7]) was 25 mg/kg. It also gave an inhibition in vivo at 10 mg/kg (Mus musculus [3]) of 65% and an ED50 (Mus musculus [8]) of 22 mg/kg.

With `O=C([O-])Cc1ccccc1Nc1c(Cl)cccc1Cl.[Na+]` [DICLOFENAC SODIUM] the Activity (Mus musculus [1]) was 87.5%, the Activity (Mus musculus [2]) was 64% and the inhibition in vivo at 10 mg/kg (Mus musculus [3]) was 90%.

With `CC(=O)Oc1ccccc1C(=O)O` [ASPIRIN] the “Ratio LD50/ED50” value (Mus musculus [5]) was 10.3.
